A melting point compilation (Tetko et al.; mined from patent text by program, amines drawn as free bases though some values may be those of a salt)

SMILES	melting point
COC(=O)CCC(=O)c1ccc(OC(=S)N(C)C)cc1	62 to 64 °C
Nc1cccc2cnc(Cl)cc12	176 to 177 °C
CC(=O)c1sc(N2CCN(CC3CC3)C2=O)nc1C	103 to 104 °C
CCc1ncnc(O)c1Br	175 to 177 °C
COc1cc2c(cc1OC)CCNCC2	86 to 89 °C
Cn1cc(C(=O)NCCC2CCN(S(=O)(=O)NC(=O)NC3CCCCC3)CC2)c(=O)n(C)c1=O	205 to 207 °C
CCOC(=O)c1cc(-c2cccc(OC)c2)[nH]c1N	96 to 97 °C
CCCCCCc1cc2c(s1)NC(=O)CN=C2c1ccccc1Cl	141 to 143 °C
CCOC(=O)c1cn2c(nc1=O)CCC2	59 to 60 °C
CCC(C)CNNC(=O)c1cc(N)cc(C(=O)NNCC(C)CC)c1 (configuration not stated)	162 to 163 °C
Oc1cccc2c1CCC=C2	67 to 68 °C
Cc1nn(-c2c(Cl)cc(C(F)(F)F)cc2Cl)c(Cl)c1C=O	201 °C
O=C(c1ccc(F)cc1)c1ccc(C#Cc2ccc(F)cc2)cc1	190 to 191 °C
Cc1ccc(C2=CCN(CCCc3nnc4n3CCCCC4)CC2)cc1	93 to 96 °C
CCC(CC)Nc1c(NCc2ccc(OC)c(OC)c2)c(=O)c1=O	223 to 224 °C
CC(C)(C)C(=O)OCc1nc2cc3c(cc2c(=O)[nH]1)C(=O)CC3	185 to 190 °C
COc1cc2c(c3c1OC(C)(C)C3)C(c1cccc(C(=O)Nc3c(Cl)cncc3Cl)c1)=NC(C)(C)C2	227 to 228 °C
CC(=O)NCCc1ccc(NC(=O)C=C2CC(C(=O)O)Nc3cc(Cl)cc(Cl)c32)cc1 (racemic)	254 to 256 °C
CC(C)C1CC(O)OC(C(C)C2CC(=O)C3C4C(O)C(O)C5C(O)C(O)CCC5(C)C4CCC23C)C1 (configuration not stated)	239 to 241 °C
O=c1cc(OCC2CCCCC2)cc[nH]1	256 to 260 °C
CC(O)c1cc2c(=O)n(NS(C)(=O)=O)c(=O)[nH]c2cc1C(F)(F)F (configuration not stated)	263 to 268 °C

SMILES	melting point
Cc1ccc2c(NCc3ccc(NC(=O)c4ccc(C)nc4)cc3)nc(Cl)nc2c1	257 to 259 °C
CCCCCCCCCCCCCCCCCC(=O)ON1C(=O)c2ccccc2C1=O	76 to 80 °C
CCSc1ncc(Oc2ccc(Cl)c(Cl)c2)cc1C#N	80 to 81 °C
CC(=O)N1CCc2ccc(C(O)CCCN3CCC(c4ccc(Cl)cc4)CC3)cc2CC1 (configuration not stated)	113 to 114 °C
CCCCCN(CCCOC)C(=O)C(CCC(=O)O)CS(=O)(=O)c1ccc2ccccc2c1 (configuration not stated)	79 to 82 °C
O=[N+]([O-])c1ccc2oc(-c3sccc3CN3CCOCC3)nc2c1	143 to 145 °C
O=[N+]([O-])c1ccc(SSn2nccn2)c(C(Cl)(Cl)Cl)c1	189 °C
CC(C)(C)OC(=O)Nc1cccc(-c2nc(=O)o[nH]2)c1	193 °C
COC(=O)c1ccc2ncc(C(=O)NCc3ccc(Cl)cc3)c(O)c2c1	290 to 292 °C
Nc1c(Cl)cc(C(O)CNCCCCCCOCCCc2ccc(C(=O)O)cc2)cc1Cl (configuration not stated)	190 to 191 °C
COc1cc2nc(N3CCN(C(=O)C4CC=CCC4)CC3)nc(N)c2cc1OC (configuration not stated)	211 to 213 °C
NC1=NC(c2ccc(OC(F)(F)F)cc2)(c2cccc(CCC3CC3)c2)C2=NCCCN12 (configuration not stated)	65 to 77 °C
CC#CCOc1ccc(S(=O)(=O)N(C)C(CCCSc2ccc(Cl)cc2)C(=O)OC)cc1 (configuration not stated)	88 to 89 °C
CCCOc1ccc(S(=O)(=O)N2CCCC(C(=O)OCC)C2)cc1-c1nc2cc(Cl)c([N+](=O)[O-])cc2c(=O)[nH]1 (configuration not stated)	196 to 197 °C
OC(Cc1ccc(C(F)(F)F)cc1)(Cn1ccnc1)Cn1cncn1 (configuration not stated)	159 to 161 °C
Cc1ccc(N2CCN(Cc3ccc4ccc(=O)oc4c3)CC2)cc1	154 to 155 °C
Cc1nc(-n2ccc(OCc3ccc(C(F)(F)F)o3)cc2=O)sc1C(=O)NCc1cccnc1	240 to 242 °C
COC(=O)C1=C(C)NC(C)=C(C(=O)OCCCl)C1c1cccc(Br)n1 (configuration not stated)	152 to 153 °C
Cn1nc(CO)nc1NCCCOc1cccc(CN2CCCCC2)c1	118 to 119 °C
CN(Cc1ccc(NC(=O)C2=Cc3cc(-c4ccc(Cl)s4)ccc3S(=O)(=O)CC2)cc1)C1CCOCC1	221 to 222 °C
COc1cc2[nH]c(N(C)Cc3cccc(N4CCCC4=O)c3)nc(=O)c2c(OC)c1OC	166 °C

The next lines start with the values.

melting point	SMILES
181 to 183 °C	NC(=O)C(Sc1nc2cc(Cl)ccc2s1)c1ccccc1 (configuration not stated)
84 to 86 °C	COc1cccc2c1CCc1cnoc1-2
103 °C	CN1c2ccccc2Sc2c(C=O)cccc21
184 to 186 °C	Cc1c(/C=C/C(=O)c2cccc3ccccc23)ncn1C(c1ccccc1)(c1ccccc1)c1ccccc1
167 to 168 °C	O=C(Nc1ccc(F)cn1)c1ccc(NCc2ccccc2)nc1
77 to 78 °C	COC(=O)CCc1ccc(C(=O)Cc2ccccc2)cc1
253 to 254 °C	COC(=O)c1nc(NC(C)=O)sc1-c1ccc(SC)cc1
122 to 124 °C	O=[N+]([O-])c1ccc2nnn(OS(=O)(=O)c3ccccc3)c2c1
92 to 94 °C	C=CCc1cc(OCC)c2c(c1OC)S(=O)(=O)N(Cc1ccccc1)C2=O
152 °C	O=S1(=O)c2cccc3cccc(c23)N1CCN1CCC(CCn2ccc3ccccc32)CC1
139 to 140 °C	COC(=O)CC(=O)CN1C(=O)c2ccccc2C1=O
190 to 192 °C	FC(F)(F)c1ccccc1-c1n[nH]c(-c2ccccc2C(F)(F)F)n1
125 to 126 °C	Cc1ccccc1CCc1c(C(C)C)nc(C(C)C)c(CO)c1-c1ccc(F)cc1
198 to 202 °C	O=c1[nH]nc(-c2cccc(OCc3csc(-c4ccccc4F)n3)c2)o1
198 °C	Cc1[nH]c(=O)n(C2CCCCC2)c1-c1ccc(Oc2ccccc2)cc1
73 to 76 °C	COC(=O)C1C2C=CC(C2)C1NC(=O)OCc1ccccc1 (configuration not stated)
70 to 73 °C	CN1C(=O)C(c2ccc(OC(F)F)cc2)(c2ccc(F)c(CF)c2)N=C1N (configuration not stated)
157 to 158 °C	COc1ccc(/C=C/c2c(Cl)cncc2Cl)c2cc(-c3ccccn3)oc12
144 °C	COc1ccc(N2C(=O)C(C)(C)N(c3ccc(Oc4ccccc4)cc3)C2=S)cc1
50 °C	OCc1cnc(Oc2ccccc2)s1
223 to 225 °C	COc1ccccc1Nc1cccc2c1C(=O)N(C1CCC(=O)NC1=O)C2=O (configuration not stated)
185 °C	Oc1ccccc1-c1cccnc1
> 250 °C	CCc1nc2c(N)nc3ccccc3c2n1CC1(O)CCOCC1
251 to 253 °C	Cc1cccc(NC(=O)CN2C(=O)C3(COc4cc5c(cc43)CCO5)c3ccccc32)c1C (configuration not stated)
119 to 120 °C	Cc1cccc(N2CCN(CCCCNC(=O)c3cc4ccccc4o3)CC2)c1
110 to 115 °C	CN(C)S(=O)(=O)c1cccc(-c2ccnc(C(=O)N(O)Cc3ccccc3)c2)c1
127 °C	CN(C(=O)c1ccccc1N)c1ccccc1
99.5 to 101 °C	CC1NC(=O)N(C)N=C1c1ccccc1 (configuration not stated)
119 to 121 °C	COc1ccc(-n2nc(CBr)cc2-c2ccc(C)cc2)cc1
225 °C	Cc1ccc(C(O)c2ccc3noc(-c4cccc(Cl)c4)c3c2)cc1 (configuration not stated)
